Earlier results in paper PMC8764166, “Phenolic-Rich Plant Extracts With Antimicrobial Activity: An Alternative to Food Preservatives and Biocides?” (Frontiers in Microbiology, 2022).
Values after ≈ are worked out from the molar mass of the structure shown. Read-outs that look alike come from different tables or passages of the source.

Legend:
Bacillus cereus = settings: for MIC against Bacillus cereus: ref Skroza et al., 2019
Escherichia coli = settings: for MIC against Escherichia coli: E. coli O157:H7 ATCC 43890, 2.5 10^6 cfu·ml^−1, Mueller Hinton broth, ref Pacheco-Ordaz et al., 2017
[1] = system: biofilms with undesirable food spoiling or foodborne pathogenic microorganisms; set-up: method as in the references listed per substance; settings: the references listed per substance
Enterococcus faecalis = settings: for MIC against Enterococcus faecalis: ref Adamczak et al., 2020
Pseudomonas aeruginosa = settings: 2020
Salmonella Infantis = system: Salmonella Infantis; set-up: method as in Skroza et al., 2019; settings: ref Skroza et al., 2019
L. monocytogenes = system: L. monocytogenes; set-up: method as in Pernin et al., 2019; settings: ref Pernin et al., 2019
[2] = system: Salmonella enterica serovar Typhimurium; settings: ref Alvarado-Martinez et al., 2020
[3] = ŽMJ 129 (clinical isolate), 10^5–10^6 cfu·ml^−1, Mueller Hinton broth, 24 h 37°C, ref Skroza et al., 2019

Structure (SMILES)	MIC against Enterococcus faecalis (Enterococcus faecalis)	MIC against P. aeruginosa (Pseudomonas aeruginosa; ref Adamczak et al.)	MIC against E. coli (Escherichia coli; ref Adamczak et al., 2020)	MIC against Bacillus cereus (Bacillus cereus)	MIC against S. aureus (Staphylococcus aureus; ref Skroza et al., 2019)	other results
COC1=CC(=O)C=C(OC)C1=O [2,6-dimethoxy-1,4-benzoquinone]						MIC against B. cereus (Bacillus cereus; ref Kim et al., 2010): 64 µg/mL (≈ 381 µM); MIC against S. typhimurium (Salmonella typhimurium; ref Kim et al., 2010): 32 µg/mL (≈ 190 µM); MIC against S. aureus (Staphylococcus aureus; ref Kim et al., 2010): 8 µg/mL (≈ 47.6 µM); MIC against E. coli (Escherichia coli; ref Kim et al., 2010): 32 µg/mL (≈ 190 µM)
Cc1ccc(O)c(O)c1 [4-methylcatechol]						activity against biofilms [1]: inhibit formation or to eradicate biofilms
CC(C)(C)c1ccc(O)c(O)c1 [4-tert-butylcatechol]						activity against biofilms [1]: inhibit formation or to eradicate biofilms
O=c1cc(-c2ccc(O)cc2)oc2cc(O)cc(O)c12 [Apigenin]	1000 µg/mL (≈ 3700 µM)	500 µg/mL (≈ 1850 µM)	500 µg/mL (≈ 1850 µM)			MIC against S. aureus (Staphylococcus aureus; ref Adamczak et al., 2020): 500 to 1000 µg/mL
Oc1cc(O)c2c(c1)O[C@H](c1ccc(O)c(O)c1)[C@H](O)C2 [Epicatechin]				360 µg/mL (≈ 1240 µM)	720 µg/mL (≈ 2480 µM)	MIC against Salmonella Infantis (Salmonella Infantis): 720 µg/mL (≈ 2480 µM); MIC against E. coli (Escherichia coli; [3]): 720 µg/mL (≈ 2480 µM)
O=c1cc(-c2ccccc2)oc2ccccc12 [Flavone]	E. faecalis 0.5 g·L^−1 E. coli 0.5 g·L^−1 P. aeruginosa 0.5 g·L^−1	E. faecalis 0.5 g·L^−1 E. coli 0.5 g·L^−1 P. aeruginosa 0.5 g·L^−1	E. faecalis 0.5 g·L^−1 E. coli 0.5 g·L^−1 P. aeruginosa 0.5 g·L^−1			
O=c1c(O)c(-c2ccc(O)cc2)oc2cc(O)cc(O)c12 [Kaempferol]			E. coli 0.5 g·L^−1	90 µg/mL (≈ 314 µM)	90 µg/mL (≈ 314 µM)	MIC against Salmonella Infantis (Salmonella Infantis): 360 µg/mL (≈ 1260 µM); MIC against E. faecalis (Enterococcus faecalis; ref del Valle et al., 2016): E. faecalis 0.1 g·L^−1; MIC against E. coli (Escherichia coli; [3]): 360 µg/mL (≈ 1260 µM)
O=c1cc(-c2ccc(O)c(O)c2)oc2cc(O)cc(O)c12 [Luteolin]	1000 µg/mL (≈ 3490 µM)	500 µg/mL (≈ 1750 µM)		90 µg/mL (≈ 314 µM)	45 µg/mL (≈ 157 µM)	MIC against S. aureus (Staphylococcus aureus; ref Adamczak et al., 2020): 500 µg/mL (≈ 1750 µM)
C[C@@H]1O[C@@H](O[C@H]2[C@H](Oc3cc(O)c4c(c3)O[C@H](c3ccc(O)cc3)CC4=O)O[C@H](CO)[C@@H](O)[C@@H]2O)[C@H](O)[C@H](O)[C@H]1O [Naringin]	1000 µg/mL (≈ 1720 µM)	500 µg/mL (≈ 861 µM)	500 µg/mL (≈ 861 µM)			
O=c1cc(-c2ccc(O)c(O)c2)oc2c([C@@H]3O[C@H](CO)[C@@H](O)[C@H](O)[C@H]3O)c(O)cc(O)c12 [Orientin]	1000 µg/mL (≈ 2230 µM)	500 µg/mL (≈ 1120 µM)	500 µg/mL (≈ 1120 µM)			MIC against S. aureus (Staphylococcus aureus; ref Adamczak et al., 2020): 500 µg/mL (≈ 1120 µM)
CC(C)=CCc1c(O)ccc2c1O[C@H]1c3ccc(O)cc3OC[C@@H]21 [Phaseollidin]						MIC against B. cereus (Bacillus cereus; ref Sadgrove et al., 2020): 10 µg/mL (≈ 30.8 µM); MIC against S. aureus (Staphylococcus aureus; ref Sadgrove et al., 2020): 10 µg/mL (≈ 30.8 µM); MIC against P. aeruginosa (Pseudomonas aeruginosa; ref Sadgrove et al.): 20 µg/mL (≈ 61.7 µM); MIC against E. coli (Escherichia coli; ref Sadgrove et al., 2020): 20 µg/mL (≈ 61.7 µM)
O=C(O)c1ccc(O)c(O)c1 [Proto-catechuic acid]				190 µg/mL (≈ 1230 µM)	380 µg/mL (≈ 2470 µM)	mechanism of action against L. monocytogenes (L. monocytogenes): penetration or accumulation in the bacterial membrane of undissociated form; MIC against Salmonella Infantis (Salmonella Infantis): 380 µg/mL (≈ 2470 µM); MIC against Escherichia coli (Escherichia coli; 24 h 37°C): E. coli, 3.1 g·L^−1; MIC against E. coli (Escherichia coli; [3]): 380 µg/mL (≈ 2470 µM); cell morphology [2]: morphological defects at the polar ends of bacteria; expression of virulence genes (SPI-1) [2]: downregulation of key regulatory genes; membrane permeabilization [2]: membrane permeabilization
O=C(/C=C/c1ccc(O)c(O)c1)O[C@H](Cc1ccc(O)c(O)c1)C(=O)O [Rosmarinic acid]	1000 µg/mL (≈ 2780 µM)	500 to 1000 µg/mL	500 µg/mL (≈ 1390 µM)	S. aureus 0.45 g·L^−1 B. cereus 0.45 g·L^−1 E. coli 0.45 g·L^−1 S. Infantis 0.45 g·L^−1	S. aureus 0.45 g·L^−1 B. cereus 0.45 g·L^−1 E. coli 0.45 g·L^−1 S. Infantis 0.45 g·L^−1	MIC against Salmonella Infantis (Salmonella Infantis): S. aureus 0.45 g·L^−1 B. cereus 0.45 g·L^−1 E. coli 0.45 g·L^−1 S. Infantis 0.45 g·L^−1; MIC against E. coli (Escherichia coli; [3]): S. aureus 0.45 g·L^−1 B. cereus 0.45 g·L^−1 E. coli 0.45 g·L^−1 S. Infantis 0.45 g·L^−1
O=C(O)c1ccccc1O [Salicylic acid]	500 µg/mL (≈ 3620 µM)	500 µg/mL (≈ 3620 µM)	250 to 500 µg/mL	170 µg/mL (≈ 1230 µM)	350 µg/mL (≈ 2530 µM)	MIC against Salmonella Infantis (Salmonella Infantis): 170 µg/mL (≈ 1230 µM); MIC against S. aureus (Staphylococcus aureus; ref Adamczak et al., 2020): 250 to 500 µg/mL; MIC against E. coli (Escherichia coli; [3]): 170 µg/mL (≈ 1230 µM)
COc1cc(C(=O)O)cc(OC)c1O [Syringic acid]				250 µg/mL (≈ 1260 µM)	500 µg/mL (≈ 2520 µM)	MIC against S. typhimurium (Salmonella typhimurium; ref Phadungkit and Luanratana, 2006): S. typhimurium 0.0625 g·L^−1; MIC against Salmonella Infantis (Salmonella Infantis): 250 µg/mL (≈ 1260 µM); MIC against E. coli (Escherichia coli; [3]): 250 µg/mL (≈ 1260 µM)
COc1cc(C(=O)O)ccc1O [Vanillic acid]				100 µg/mL (≈ 595 µM)	420 µg/mL (≈ 2500 µM)	MIC against Salmonella typhimurium (Salmonella typhimurium; ref Pacheco-Ordaz et al., 2017): 2500 µg/mL (≈ 14900 µM); mechanism of action against L. monocytogenes (L. monocytogenes): penetration or accumulation in the bacterial membrane of undissociated form; MIC against Salmonella Infantis (Salmonella Infantis): 210 µg/mL (≈ 1250 µM); activity against biofilms [1]: inhibit formation or to eradicate biofilms; MIC against Escherichia coli (Escherichia coli; 24 h 37°C): 3400 µg/mL (≈ 20200 µM); MIC against E. coli (Escherichia coli; [3]): 100 µg/mL (≈ 595 µM); cell morphology [2]: observation of mid-division cells; membrane permeabilization [2]: membrane permeabilization
O=c1cc(-c2ccc(O)cc2)oc2c([C@@H]3O[C@H](CO)[C@@H](O)[C@H](O)[C@H]3O)c(O)cc(O)c12 [Vitexin]	1000 µg/mL (≈ 2310 µM)	500 µg/mL (≈ 1160 µM)	500 µg/mL (≈ 1160 µM)			
O=C(O)/C=C/c1ccccc1 [cinnamic acid]						activity against biofilms [1]: inhibit formation or to eradicate biofilms
O=c1cc(-c2ccc(O)c(O)c2)oc2cc(O)c([C@@H]3O[C@H](CO)[C@@H](O)[C@H](O)[C@H]3O)c(O)c12 [isoorientin]	1000 µg/mL (≈ 2230 µM)	500 µg/mL (≈ 1120 µM)	500 µg/mL (≈ 1120 µM)			MIC against S. aureus (Staphylococcus aureus; ref Adamczak et al., 2020): 500 µg/mL (≈ 1120 µM)
O=c1cc(-c2ccc(O)cc2)oc2cc(O)c([C@@H]3O[C@H](CO)[C@@H](O)[C@H](O)[C@H]3O)c(O)c12 [isovitexin]	1000 µg/mL (≈ 2310 µM)	500 µg/mL (≈ 1160 µM)	500 µg/mL (≈ 1160 µM)			
O=c1c(O)c(-c2ccc(O)cc2O)oc2cc(O)cc(O)c12 [morin]						activity against biofilms [1]: inhibit formation or to eradicate biofilms
O=c1c(O)c(-c2cc(O)c(O)c(O)c2)oc2cc(O)cc(O)c12 [myricetin]						activity against biofilms [1]: inhibit formation or to eradicate biofilms
O=C(O)c1ccc(O)cc1 [p-hydroxybenzoic acid]						mechanism of action against L. monocytogenes (L. monocytogenes): penetration or accumulation in the bacterial membrane of undissociated form
Oc1cccc(O)c1O [pyrogallol]						activity against biofilms [1]: inhibit formation or to eradicate biofilms
C[C@@H]1O[C@@H](O[C@@H]2[C@@H](O)[C@H](O)[C@@H](CO)O[C@H]2c2c(O)cc(O)c3c(=O)cc(-c4ccc(O)cc4)oc23)[C@H](O)[C@H](O)[C@H]1O [vitexin 2"-o-rhamnoside]	1000 µg/mL (≈ 1730 µM)	500 µg/mL (≈ 864 µM)	500 µg/mL (≈ 864 µM)			
